Results reported in patent US10865391B2, “Glutamate dehydrogenase mutants and their application in preparation of L-phosphinothricin” (ZHEJIANG UNIVERSITY, priority 2018, dated 2020).

Tests used:
Assay type in all cases: biochemical, Pseudomonas putida
[1] = test system: wild type PpGluDH; assay: Catalytic activity toward other keto acid substrates by spectrophotometry, wild type; conditions: keto acid as substrate
[2] = test system: PpGluDH-A167G; assay: Catalytic activity toward other keto acid substrates by spectrophotometry, A167G mutant; conditions: keto acid as substrate; for Specific activity (U/mg) A167G: PpGluDH-A167G; for Catalytic activity of PpGluDH-A167G compared with the wild type: result in words
[3] = test system: PpGluDH-V378A; assay: Catalytic activity toward other keto acid substrates by spectrophotometry, V378A mutant; conditions: keto acid as substrate; for Specific activity (U/mg) V378A: PpGluDH-V378A; for Catalytic activity of PpGluDH-V378A compared with the wild type: result in words

## O=C(O)C(=O)c1ccccc1 [10a, Phenylglyoxylic acid]
[1]
  Specific activity (U/mg) Wild: 0.04 U/mg
[2]
  Specific activity (U/mg) A167G: 0.01 U/mg
[3]
  Specific activity (U/mg) V378A: 0.01 U/mg

## CCCC(=O)C(=O)O [6a, 2-Oxovaleric acid]
[1]
  Specific activity (U/mg) Wild: 6.39 U/mg
[2]
  Specific activity (U/mg) A167G: 1.21 U/mg
[3]
  Specific activity (U/mg) V378A: 2.37 U/mg

## CC(=O)C(=O)O [2a, Pyruvic acid]
[1]
  Specific activity (U/mg) Wild: 0.15 U/mg
[2]
  Specific activity (U/mg) A167G: <0.01 U/mg
[3]
  Specific activity (U/mg) V378A: 0.01 U/mg

## CCCCC(=O)C(=O)O [9a, 2-Ketohexanoic acid]
[1]
  Specific activity (U/mg) Wild: 0.71 U/mg
[2]
  Specific activity (U/mg) A167G: 1.23 U/mg
  Catalytic activity of PpGluDH-A167G compared with the wild type: improved catalytic activity
[3]
  Specific activity (U/mg) V378A: 1.49 U/mg
  Catalytic activity of PpGluDH-V378A compared with the wild type: improved catalytic activity

## O=C(O)C(=O)Cc1ccccc1 [11a, Phenylpyruvic acid]
[1]
  Specific activity (U/mg) Wild: <0.01 U/mg
[2]
  Specific activity (U/mg) A167G: <0.01 U/mg
[3]
  Specific activity (U/mg) V378A: <0.01 U/mg

## CCC(=O)C(=O)O [3a, 2-Ketobutyric acid]
[1]
  Specific activity (U/mg) Wild: 4.93 U/mg
[2]
  Specific activity (U/mg) A167G: 0.09 U/mg
[3]
  Specific activity (U/mg) V378A: 0.34 U/mg

## O=C(O)C(=O)CCc1ccccc1 [12a, 2-Oxo-4-phenylbutyric acid]
[1]
  Specific activity (U/mg) Wild: 0.08 U/mg
[2]
  Specific activity (U/mg) A167G: 0.33 U/mg
  Catalytic activity of PpGluDH-A167G compared with the wild type: improved to some extent
[3]
  Specific activity (U/mg) V378A: 0.04 U/mg
  Catalytic activity of PpGluDH-V378A compared with the wild type: decreased

## O=C(O)C(=O)Cc1ccc(O)cc1 [13a, 4-hydroxyphenylpyruvic acid]
[1]
  Specific activity (U/mg) Wild: 0.02 U/mg
[2]
  Specific activity (U/mg) A167G: <0.01 U/mg
[3]
  Specific activity (U/mg) V378A: <0.01 U/mg

## CC(C)C(=O)C(=O)O [4a, 3-Methyl-2-oxobutanoic acid]
[1]
  Specific activity (U/mg) Wild: 0.37 U/mg
[2]
  Specific activity (U/mg) A167G: <0.01 U/mg
[3]
  Specific activity (U/mg) V378A: 0.04 U/mg

## CC(C)CC(=O)C(=O)O [8a, 4-Methyl-2-Oxovaleric acid]
[1]
  Specific activity (U/mg) Wild: 0.05 U/mg
[2]
  Specific activity (U/mg) A167G: 0.01 U/mg
[3]
  Specific activity (U/mg) V378A: 0.03 U/mg

## CCC(C)C(=O)C(=O)O (stereo not drawn) [7a, 3-Methyl-2-Oxovaleric acid]
[1]
  Specific activity (U/mg) Wild: 0.07 U/mg
[2]
  Specific activity (U/mg) A167G: <0.01 U/mg
[3]
  Specific activity (U/mg) V378A: 0.03 U/mg

## O=C(O)CCC(=O)C(=O)O [1a, 2-Ketoglutaric acid]
[1]
  Specific activity (U/mg) Wild: 189.05 U/mg
[2]
  Specific activity (U/mg) A167G: 314.41 U/mg
  Catalytic activity of PpGluDH-A167G compared with the wild type: improved catalytic activity
[3]
  Specific activity (U/mg) V378A: 268.48 U/mg
  Catalytic activity of PpGluDH-V378A compared with the wild type: improved catalytic activity
